Test results from US8436007B2, “Inhibitors of protein kinases” (Ingenium Pharmaceuticals GmbH, priority 2007, dated 2013).
Entries after “also recorded” stand apart in the source; their conditions may differ.

Tests used:
[1] = tested on: IL6 expression in LPS induced THP-1 macrophages; experiment: In vitro THP-1 assay: IL6 expression in LPS-induced THP-1 macrophages (ELISA of supernatant); assay type: cell-based, human; settings: differentiated THP-1 cells, 60 min pre-incubation with compound (0.5 to 5 μM), 100 ng/ml LPS for 4-48 h, triplicates
Procedure: (§1) The human THP-1 cell line can be utilized as an in vitro model of cytokine expression as mediated by Lipopolysaccharide (LPS) or Tumor Necrosis Factorα [TNFα]. Monocytic THP-1 cells (ATCC; TIB-202) can be differentiated into macrophage-like cells expressing pro-inflammatory cytokines like TNFα, IL6 and IL1β upon induction with LPS or by TNFα (autocrine induction) itself. THP-1 cells are grown in modified RPMI-1640 medium (ATCC, Cat. No. 30-2001) supplemented with 10% FCS and 1% Pen/Strep. For cytokine inhibition assays, cells are seeded at a density of 5×10^5 cells/ml into 6-well plates in standard growth medium supplemented with 100 ng/ml PMA (Sigma, P1585) to induce differentiation into macrophage-like cells. After 24 hours, the medium is replaced with standard growth medium (without PMA) and the cells are incubated for another 48 hours to complete differentiation. After 72 h of differentiation, the medium is replaced with serum free growth medium, and CDK-inhibiting compounds as well as reference compounds such as positive and negative controls, each dissolved in DMSO are added at concentrations ranging from 0.5 to 5 μM (final concentration of DMSO in the well is 0.1%). Cells are incubated for 60 min with compounds prior to stimulation with 100 ng/ml LPS (Sigma, L2630) for another 4-48 hours. Supernatants are collected and assayed immediately for cytokine expression, e.g. for TNFα, IL-6 and IL-1b using commercially available sandwich ELISA assays (eBioscience, Cat. No 88-7346, 88-7066, 88-7010) or kept frozen at […] until evaluation. Concentrations of TNFα, IL6 and IL1β within the cell culture supernatants are measured by using commercial ELISA Kits (eBioscience) according to the manufacturers' instructions. CDK-inhibitory compounds #1, 5, 6, 8, and 9 were administered at to differentiated THP-1 cells in triplicates as described above (see section 2.). After 60 min of pre-incubation with test or reference compound (SB203580, a p38 inhibitor and BMS345541, an IKK-inhibitor) alone, cells were stimulated with LPS. After incubation for 4-48 h, supernatants were collected and ELISA based determinations of cytokine supernatant concentrations were performed as described in section 3, supra.

[2] = tested on: TNFα expression in LPS induced THP-1 macrophages; experiment: In vitro THP-1 assay: TNFα expression in LPS-induced THP-1 macrophages (ELISA of supernatant); assay type: cell-based, human; settings: differentiated THP-1 cells, 60 min pre-incubation with compound (0.5 to 5 μM), 100 ng/ml LPS for 4-48 h, triplicates
Procedure: as §1

| Compound | inhibition of IL6 protein concentration in the cell supernatant compared to vehicle (DMSO) [1] | inhibition of TNFα expression / protein concentration in the cell supernatant compared to vehicle (DMSO) [2] |
| --- | --- | --- |
| COc1ccccc1-c1ccnc(Nc2cccc(CS(N)(=O)=O)c2)n1 [Compound 1, {3-[4-(2-Methoxy-phenyl)-pyrimidin-2-ylamino]-phenyl}-methanesulfonamide] | significant inhibitory effect | significant inhibitory effect; also recorded: significant inhibition |
| COc1ccccc1-c1ccnc(Nc2cccc(CS(=O)(=O)NC3CC3)c2)n1 [Compound 6, N-Cyclopropyl-C-{3-[4-(2-methoxy-phenyl)-pyrimidin-2-ylamino]-phenyl}-methanesulfonamide] | significant inhibitory effect | significant inhibitory effect; also recorded: significant inhibition |
| COc1ccccc1-c1ccnc(Nc2cccc(CS(=O)(=O)CCO)c2)n1 [Compound 9, 2-{3-[4-(2-Methoxy-phenyl)-pyrimidin-2-ylamino]-phenylmethanesulfonyl}-ethanol] | significant inhibitory effect | significant inhibitory effect; also recorded: significant inhibition |
| COc1cc(F)ccc1-c1ccnc(Nc2cccc(CS(N)(=O)=O)c2)n1 [Compound 5, {3-[4-(4-Fluoro-2-methoxy-phenyl)-pyrimidin-2-ylamino]-phenyl}-methanesulfonamide] | significant inhibitory effect | significant inhibitory effect; also recorded: significant inhibition |
| COc1ccccc1-c1ccnc(Nc2cccc(CS(=O)(=O)N(C)CCO)c2)n1 [Compound 8, N-(2-Hydroxy-ethyl)-C-{3-[4-(2-methoxy-phenyl)-pyrimidin-2-ylamino]-phenyl}-N-methyl-methanesulfonamide] | significant inhibitory effect | significant inhibitory effect; also recorded: significant inhibition |
